According to patent US20200062705A1, “NOVEL CRYSTALLINE FORMS” (Biogen MA Inc., priority 2017, published 2020):

Columns and labels:
Format in all cases: physicochemical
[1] = Powder bulk density analysis (ring shear tester); details: for Initial Density: initial bulk density, corresponds to x = 0 in FIG. 21, mass of powder normalized by volume of the cell; for Density results (Table 21 and FIG. 21) compared with the product of Route D (E12): initial density and density at varying stresses, higher density = more ideal packing
Text: Solid forms prepared according to the procedures described for Routes D, E, and F (Examples 12-14, respectively) were subjected to powder bulk density analysis in accordance with the following procedure.
A ring shear tester (RST-XS.s, Dietmar Schulze, Wolfenbüttel, Germany) with RST CONTROL 95 software was used for the bulk density analysis. For this analysis, Low-Stress Shear Cell, XS-Lr0, bottom ring was over-filled with small portions of powder using a spatula. The excess powder was removed by gently scraping off the powder with the spatula until the powder was flush with the top of the ring. The bottom ring was weighed and the total mass was entered. When prompted the shear cell lid was attached to the loading rod and the filled bottom ring placed on the driving axle for the test. The initial bulk density was calculated by the control software from the mass of powder normalized by the volume of the cell. During the shear test, 5 preshear normal stresses, 0.1, 0.2, 0.3, 0.4, and 0.5 kPa were applied to the powder before it was sheared until steady state was achieved. At each preshear normal stress, the powder was sheared to failure at 5 increasing normal stresses between 0 and the preshear normal stress to generate corresponding shear stresses at failure. A yield locus was generated by applying a linear regression to the shear stresses as a function of the normal stress plot. The Major Principal Stress (x-axis) was the maximum value obtained when a Mohr's circle was drawn through the preshear normal stress and tangential to the yield locus. The volume of powder at each steady state was determined from the change in height of the lid and, together with the initial powder mass, used to calculate the powder bulk densities (y-axis).

[2] = Powder flow function analysis (ring shear tester); details: FIG. 22; lower flow function curve = good flow
Text: Solid forms prepared according to the procedures described for Routes D, E, and F (Examples 12-14, respectively) were subjected to powder flow function analysis in accordance with the following procedure:
A ring shear tester (RST-XS.s, Dietmar Schulze, Wolfenbüttel, Germany) with RST CONTROL 95 software was used for the flow function analysis. For this analysis, Low-Stress Shear Cell, XS-Lr0, bottom ring was over-filled with small portions of powder using a spatula. The excess powder was removed by gently scraping off the powder with the spatula until the powder was flush with the top of the ring. The bottom ring was weighed and the total mass was entered. When prompted the shear cell lid was attached to the loading rod and the filled bottom ring placed on the driving axle for the test. To obtain a flow function, 5 yield loci were determined using the “Stress Walk” function in the control software. During the shear test, 5 preshear normal stresses, 0.1, 0.2, 0.3, 0.4, and 0.5 kPa were applied to the powder to generate the 5 yield loci. At each preshear normal stress, the powder was sheared to failure at 5 equally-spaced normal stresses between 0 and the preshear normal stress to generate corresponding shear stresses at failure. Each yield locus was derived by applying a linear regression to the shear stresses as a function of the normal stress plot. […]

[3] = Powder time consolidation behavior analysis (ring shear tester); details: FIG. 23; 0 hrs vs 12 hrs storage, x=250 Pa
Text: Solid forms prepared according to the procedures described for Routes E and F (Examples 13 and 14, respectively) were subjected to powder time consolidation behavior analysis in accordance with the following procedure.
A ring shear tester (RST-XS.s, Dietmar Schulze, Wolfenbüttel, Germany) with RST CONTROL 95 software was used for the flow function analysis. For this analysis, Low-Stress Shear Cell, XS-Lr0, bottom ring was over-filled with small portions of powder using a spatula. The excess powder was removed by gently scraping off the powder with the spatula until the powder was flush with the top of the ring. The bottom ring was weighed and the total mass was entered. When prompted the shear cell lid was attached to the loading rod and the filled bottom ring placed on the driving axle for the test. For the time consolidation test, a yield locus was first obtained by applying a 0.1 kPa preshear stress and 5 normal stresses equally spaced between 0 and the preshear stress to the powder and determining the corresponding shear stresses. A fresh powder sample was again prepared and conditioned to a similar steady state as that for the just obtained yield locus. […] The change in the shear stress obtained after this new conditioned state was determined and that represents the time consolidation behavior of the powder. […]

[4] = Relative stability of crystalline forms; details: comparison among crystalline forms identified

SMILES | Initial Density [1] | Density results (Table 21 and FIG. 21) compared with the product of Route D (E12) [1] | Powder flow (flow function curve: unconfined yield strength vs major principal stress) compared with a product of Route D (E12) [2] | Time consolidation effect (unconfined yield strength gained on storage) [3] | Stability of the crystalline form relative to other forms [4]
Cl.NC(=O)[C@@H]1CC[C@H](c2ccc(OCc3ccccc3F)cc2)N1 [Example E14, (5R)-5-(4-{[(2-Fluorophenyl)methyl]oxy}phenyl)-L-prolinamide Hydrochloride (Anhydrous; Route F)] | 0.512 g/mL | far superior | better | does not exhibit as much of a consolidation effect as the product of Route E (E13) | 
Cl.NC(=O)[C@@H]1CC[C@H](c2ccc(OCc3ccccc3F)cc2)N1 [Form 9, (5R)-5-(4-{[(2-Fluorophenyl)methyl]oxy}phenyl)-L-prolinamide Hydrochloride Form 9 (Anhydrous B)] |  |  |  |  | less stable than Anhydrous Form A (Form 1)
Cl.NC(=O)[C@@H]1CC[C@H](c2ccc(OCc3ccccc3F)cc2)N1 [Example E12, (5R)-5-(4-{[(2-Fluorophenyl)methyl]oxy}phenyl)-L-prolinamide Hydrochloride (Anhydrous; Route D)] | 0.254 g/mL |  |  |  | 
Cl.NC(=O)[C@@H]1CC[C@H](c2ccc(OCc3ccccc3F)cc2)N1 [Form 10, (5R)-5-(4-{[(2-Fluorophenyl)methyl]oxy}phenyl)-L-prolinamide Hydrochloride Form 10 (Anhydrous C)] |  |  |  |  | less stable than Anhydrous Form A (Form 1)
Cl.NC(=O)[C@@H]1CC[C@H](c2ccc(OCc3ccccc3F)cc2)N1 [Example E13, (5R)-5-(4-{[(2-Fluorophenyl)methyl]oxy}phenyl)-L-prolinamide Hydrochloride (Anhydrous; Route E)] | 0.565 g/mL | far superior | better |  | 
Cl.NC(=O)[C@@H]1CC[C@H](c2ccc(OCc3ccccc3F)cc2)N1 [Form 1, (5R)-5-(4-{[(2-Fluorophenyl)methyl]oxy}phenyl)-L-prolinamide Hydrochloride Form 1 (Anhydrous A)] |  |  |  |  | most stable crystalline form identified to date
